Earlier results, collected in patent US7867716B2 (priority 2004, dated 2011).

Columns and labels:
glucoamylase = glucoamylase (Aspergillus niger, UniProt P69328)
WT-αHL = WT-αHL (Staphylococcus aureus, UniProt P09616)
Chain of WT-αHL (P09616 27-319 limits assumed): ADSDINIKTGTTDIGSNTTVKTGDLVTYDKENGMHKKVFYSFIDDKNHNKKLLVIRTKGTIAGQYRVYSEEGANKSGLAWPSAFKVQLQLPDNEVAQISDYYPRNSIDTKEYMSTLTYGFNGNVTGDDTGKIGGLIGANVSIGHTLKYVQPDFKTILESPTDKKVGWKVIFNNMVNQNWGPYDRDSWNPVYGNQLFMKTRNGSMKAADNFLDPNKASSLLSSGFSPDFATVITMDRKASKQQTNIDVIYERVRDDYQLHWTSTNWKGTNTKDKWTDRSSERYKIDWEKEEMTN

Chain of glucoamylase (P69328 25-640 limits assumed): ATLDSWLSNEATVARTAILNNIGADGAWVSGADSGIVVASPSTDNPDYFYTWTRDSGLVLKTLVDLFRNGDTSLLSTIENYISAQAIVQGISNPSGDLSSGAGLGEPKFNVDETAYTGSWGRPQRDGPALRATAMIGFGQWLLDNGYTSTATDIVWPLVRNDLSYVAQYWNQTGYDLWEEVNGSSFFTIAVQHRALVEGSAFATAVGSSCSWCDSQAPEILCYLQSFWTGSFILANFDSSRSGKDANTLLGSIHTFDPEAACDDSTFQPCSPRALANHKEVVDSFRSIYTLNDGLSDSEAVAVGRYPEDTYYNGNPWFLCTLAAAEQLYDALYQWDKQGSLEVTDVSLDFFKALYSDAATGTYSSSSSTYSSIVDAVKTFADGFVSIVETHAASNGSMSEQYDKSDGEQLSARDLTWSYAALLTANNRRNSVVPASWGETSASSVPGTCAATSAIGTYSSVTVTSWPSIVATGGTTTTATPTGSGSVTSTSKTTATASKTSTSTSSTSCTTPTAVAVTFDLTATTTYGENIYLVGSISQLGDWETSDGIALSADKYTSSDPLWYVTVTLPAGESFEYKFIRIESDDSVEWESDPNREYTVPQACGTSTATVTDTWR

For β-cyclodextrin [βCD], the “ΔS°” value (glucoamylase) is listed as −90 J mol^−1 K^−1, the “Kf (trans)” value (WT-αHL) is listed as 300 M⁻¹ and the “formation constant Kf for WT-αHL with βCD” value (WT-αHL) is listed as 290 M⁻¹.
